Experiments:
[1] = LNP hydrodynamic diameter and polydispersity index by dynamic light scattering (DLS); assay type: physicochemical; settings: LNP: 47.5% ionizable lipid, 40% cholesterol, 2.5% PEG-2000 DMG, 10% DPSC, N/P 4-8
Experimental: (§1) LNPs were prepared with 47.5% Ionizable Lipid (e.g., a compound provided herein): 40% cholesterol: 2.5% PEG-2000 DMG; and 10% DPSC and an N/P ratio range of 4-8. LNPs were formed by microfluidic mixing of the lipid and NA solutions using a Precision Nanosystems NanoAssemblr Spark or Benchtop series Instruments, according to the manufacturers protocol. A ratio of aqueous to organic solvent of approximately 2:1 or 3:1 was maintained during mixing using differential flow rates. After mixing, LNPs were collected, diluted in phosphate buffer saline (PBS) or Tris-buffered saline (TBS) (approximately 1:1 v/v). Further buffer exchange was conducted using dialysis in PBS or TBS at 4° C. for 4 to 24 hours against a 20 kDa filter. After this initial dialysis, each individual LNP preparation was characterized via dynamic light scattering (DLS) to measure the size (e.g., diameter) and polydispersity. LNPs falling within specific diameter and polydispersity ranges were pooled, and further dialyzed against PBS or TBS at 4° C. for 1 to 4 hours against a 100 kDa dialysis cassette. After the second dialysis, LNPs were sterile filtered using 0.22 μm filter and stored at 4° C. for further use.
LNP hydrodynamic diameter and polydispersity index (PDI) were measured using high throughput dynamic light scattering (DLS) (Stunner, Unchained Labs). LNPs were diluted 1×TBS or PBS to an appropriate concentration and analyzed.

[2] = LNP encapsulation efficiency by Ribogreen assay; assay type: physicochemical; settings: LNP: 47.5% ionizable lipid, 40% cholesterol, 2.5% PEG-2000 DMG, 10% DPSC, N/P 4-8
Experimental: as §1
RNA concentration and encapsulation efficiency were determined by Ribogreen assay (BioTek Synergy LX plate reader).

| Structure (SMILES) | Mean Diameter (nm) [1] [nm] | Mean PDI [1] | Mean Encapsulation Efficiency (%) [2] [%] |
| --- | --- | --- | --- |
| CC/C=C\CCCCOC(CCC(=O)OCC(COC(=O)CCCCCOC(=O)C(CCCC)CCCCCC)(COC(=O)CCCCCOC(=O)C(CCCC)CCCCCC)COC(=O)NCCN1CCCC1)OCCCC/C=C\CC (stereo not drawn) [Compound 7-64, ((2-(((4,4-bis(((Z)-oct-5-en-1-yl)oxy)butanoyl)oxy)methyl)-2-((((2-(pyrrolidin-1-yl)ethyl)carbamoyl)oxy)methyl)propane-1,3-diyl)bis(oxy))bis(6-oxohexane-6,1-diyl) bis(2-butyloctanoate)] | 82.1 | 0.13 | 90.4 |
| CC/C=C\CCCCOC(CCC(=O)OCC(COC(=O)CCCCCCCOC(=O)C(CCCC)CCCCCC)(COC(=O)CCCCCCCOC(=O)C(CCCC)CCCCCC)COC(=O)OCCCN(CC)CC)OCCCC/C=C\CC (stereo not drawn) [Compound 7-57] | 81.0 | 0.17 | 88.4 |
| CC/C=C\CCCCOC(CCC(=O)OCC(COC(=O)CCCCCCOC(=O)C(CCCC)CCCCCC)(COC(=O)CCCCCCOC(=O)C(CCCC)CCCCCC)COC(=O)OCC1CCCN(CC)C1)OCCCC/C=C\CC (stereo not drawn) [Compound 7-59, ((2-(((4,4-bis(((Z)-oct-5-en-1-yl)oxy)butanoyl)oxy)methyl)-2-(((((1-ethylpiperidin-3-yl)methoxy)carbonyl)oxy)methyl)propane-1,3-diyl)bis(oxy))bis(7-oxoheptane-7,1-diyl) bis(2-butyloctanoate)] | 82.4 | 0.15 | 86.7 |
| CC/C=C\CCCCOC(CCC(=O)OCC(COC(=O)CCCCCOC(=O)C(CCCC)CCCCCC)(COC(=O)CCCCCOC(=O)C(CCCC)CCCCCC)COC(=O)OCCCN(C)CC)OCCCC/C=C\CC (stereo not drawn) [Compound 7-61] | 76.1 | 0.17 | 88.9 |
| CCCCC/C=C\CCOC(=O)CCCCCCC(=O)OCC(COC(=O)CCCCCCC(=O)OCC/C=C\CCCCC)(COC(=O)CCCCCCC(=O)OCC/C=C\CCCCC)COC(=O)NCCN1CCCC1 [Compound 7-16, 8,8′-di((Z)-non-3-en-1-yl) O′1,O1-(2-(((8-(((Z)-non-3-en-1-yl)oxy)-8-oxooctanoyl)oxy)methyl)-2-((((2-(pyrrolidin-1-yl)ethyl)carbamoyl)oxy)methyl)propane-1,3-diyl) di(octanedioate)] | 108.5 | 0.07 | 79.9 |
| CC/C=C\CCCCOC(CCC(=O)OCC(COC(=O)CCCCCCOC(=O)C(CCCC)CCCCCC)(COC(=O)CCCCCCOC(=O)C(CCCC)CCCCCC)COC(=O)OCCCN(CC)CC)OCCCC/C=C\CC (stereo not drawn) [Compound 7-56] | 78.2 | 0.11 | 88.1 |
| CC/C=C\CCCCOC(CCC(=O)OCC(COC(=O)CCCCCCC/C=C\C/C=C\CCCCC)(COC(=O)CCCCCCC/C=C\C/C=C\CCCCC)COC(=O)OCCCN(C)CC)OCCCC/C=C\CC [Compound 7-69, 2-(((4,4-bis(((Z)-oct-5-en-1-yl)oxy)butanoyl)oxy)methyl)-2-((((3-(ethyl(methyl)amino)propoxy)carbonyl)oxy)methyl)propane-1,3-diyl (9Z,9′Z,12Z,12′Z)-bis(octadeca-9,12-dienoate)] | 86.1 | 0.15 | 88.5 |
| CC/C=C\CCCCOC(CCC(=O)OCC(COC(=O)CCCCCCCOC(=O)C(CCCC)CCCCCC)(COC(=O)CCCCCCCOC(=O)C(CCCC)CCCCCC)COC(=O)OCCCN(C)CC)OCCCC/C=C\CC (stereo not drawn) [Compound 7-63] | 79.6 | 0.14 | 87.8 |
| CCCCC/C=C\CCOC(=O)CCCCCC(=O)OCC(COC(=O)CCCCCC(=O)OCC/C=C\CCCCC)(COC(=O)CCCCCC(=O)OCC/C=C\CCCCC)COC(=O)CCCN1CCCC1 [Compound 7-51, 7,7′-di((Z)-non-3-en-1-yl) O′1,O1-(2-(((7-(((Z)-non-3-en-1-yl)oxy)-7-oxoheptanoyl)oxy)methyl)-2-(((4-(pyrrolidin-1-yl)butanoyl)oxy)methyl)propane-1,3-diyl) di(heptanedioate)] | 126.0 | 0.08 | 77.1 |
| CC/C=C\CCCCOC(CCC(=O)OCC(COC(=O)CCCCCCOC(=O)C(CCCC)CCCCCC)(COC(=O)CCCCCCOC(=O)C(CCCC)CCCCCC)COC(=O)OCCCN(C)CC)OCCCC/C=C\CC (stereo not drawn) [Compound 7-62] | 80.2 | 0.14 | 88.6 |
| CC/C=C\CCCCOC(CCC(=O)OCC(COC(=O)CCCCCCCOC(=O)C(CCCC)CCCCCC)(COC(=O)CCCCCCCOC(=O)C(CCCC)CCCCCC)COC(=O)OCC1CCCN(CC)C1)OCCCC/C=C\CC (stereo not drawn) [Compound 7-60, 2-(((4,4-bis(((Z)-oct-5-en-1-yl)oxy)butanoyl)oxy)methyl)-2-(((((1-ethylpiperidin-3-yl)methoxy)carbonyl)oxy)methyl)propane-1,3-diyl bis(8-((2-butyloctanoyl)oxy)octanoate)] | 86.6 | 0.14 | 84.6 |
| CC/C=C\CCCCOC(CCC(=O)OCC(COC(=O)CCCCCOC(=O)C(CCCC)CCCCCC)(COC(=O)CCCCCOC(=O)C(CCCC)CCCCCC)COC(=O)OCC1CCCN(CC)C1)OCCCC/C=C\CC (stereo not drawn) [Compound 7-58, ((2-(((4,4-bis(((Z)-oct-5-en-1-yl)oxy)butanoyl)oxy)methyl)-2-(((((1-ethylpiperidin-3-yl)methoxy)carbonyl)oxy)methyl)propane-1,3-diyl)bis(oxy))bis(6-oxohexane-6,1-diyl) bis(2-butyloctanoate)] | 77.7 | 0.15 | 90.1 |
| CC/C=C\CCCCOC(CCC(=O)OCC(COC(=O)CCCCCCCOC(=O)C(CCCC)CCCCCC)(COC(=O)CCCCCCCOC(=O)C(CCCC)CCCCCC)COC(=O)NCCN1CCCC1)OCCCC/C=C\CC (stereo not drawn) [Compound 7-66, 2-(((4,4-bis(((Z)-oct-5-en-1-yl)oxy)butanoyl)oxy)methyl)-2-((((2-(pyrrolidin-1-yl)ethyl)carbamoyl)oxy)methyl)propane-1,3-diyl bis(8-((2-butyloctanoyl)oxy)octanoate)] | 87.2 | 0.12 | 88.8 |
| CC/C=C\CCCCOC(CCC(=O)OCC(COC(=O)CCCCCCC/C=C\C/C=C\CCCCC)(COC(=O)CCCCCCC/C=C\C/C=C\CCCCC)COC(=O)OCCCN(CC)CC)OCCCC/C=C\CC [Compound 7-67, 2-(((4,4-bis(((Z)-oct-5-en-1-yl)oxy)butanoyl)oxy)methyl)-2-((((3-(diethylamino)propoxy)carbonyl)oxy)methyl)propane-1,3-diyl (9Z,9′Z,12Z,12′Z)-bis(octadeca-9,12-dienoate)] | 87.5 | 0.18 | 89.5 |
| CC/C=C\CCCCOC(CCC(=O)OCC(COC(=O)CCCCCCC/C=C\C/C=C\CCCCC)(COC(=O)CCCCCCC/C=C\C/C=C\CCCCC)COC(=O)NCCN1CCCC1)OCCCC/C=C\CC [Compound 7-70, 2-(((4,4-bis(((Z)-oct-5-en-1-yl)oxy)butanoyl)oxy)methyl)-2-((((2-(pyrrolidin-1-yl)ethyl)carbamoyl)oxy)methyl)propane-1,3-diyl (9Z,9′Z,12Z,12′Z)-bis(octadeca-9,12-dienoate)] | 88.8 | 0.13 | 87.0 |
| CC/C=C\CCCCOC(CCC(=O)OCC(COC(=O)CCCCCCOC(=O)C(CCCC)CCCCCC)(COC(=O)CCCCCCOC(=O)C(CCCC)CCCCCC)COC(=O)NCCN1CCCC1)OCCCC/C=C\CC (stereo not drawn) [Compound 7-65, ((2-(((4,4-bis(((Z)-oct-5-en-1-yl)oxy)butanoyl)oxy)methyl)-2-((((2-(pyrrolidin-1-yl)ethyl)carbamoyl)oxy)methyl)propane-1,3-diyl)bis(oxy))bis(7-oxoheptane-7,1-diyl) bis(2-butyloctanoate)] | 82.3 | 0.15 | 89.2 |
| CC/C=C\CCCCOC(CCC(=O)OCC(COC(=O)CCCCCCC/C=C\C/C=C\CCCCC)(COC(=O)CCCCCCC/C=C\C/C=C\CCCCC)COC(=O)OCC1CCCN(CC)C1)OCCCC/C=C\CC (stereo not drawn) [Compound 7-68, 2-(((4,4-bis(((Z)-oct-5-en-1-yl)oxy)butanoyl)oxy)methyl)-2-(((((1-ethylpiperidin-3-yl)methoxy)carbonyl)oxy)methyl)propane-1,3-diyl (9Z,9′Z,12Z,12′Z)-bis(octadeca-9,12-dienoate)] | 92.9 | 0.14 | 90.0 |
| CCCCC/C=C\CCOC(=O)CCCC(=O)OCC(COC(=O)CCCC(=O)OCC/C=C\CCCCC)(COC(=O)CCCC(=O)OCC/C=C\CCCCC)COC(=O)OCCCN(CC)CC [Compound 7-37, O,O′-(2-((((3-(diethylamino)propoxy)carbonyl)oxy)methyl)-2-(((5-(((Z)-non-3-en-1-yl)oxy)-5-oxopentanoyl)oxy)methyl)propane-1,3-diyl) di((Z)-non-3-en-1-yl) diglutarate] | 119.7 | 0.11 | 71.9 |
